Measured values as given in ChEMBL document CHEMBL3616434, “Identification of Phenoxyalkylbenzimidazoles with Antitubercular Activity” (J Med Chem, 2015).
In brackets after ≈: the same amount, converted by molar mass. Activity calls are given as the source filed them. The calls are words filed in the database; no cut-off is given here.

What was measured:
[1] = test system: Mycobacterium tuberculosis; assay: Antitubercular activity against Mycobacterium tuberculosis H37Rv; format: functional
[2] = test system: Mycobacterium tuberculosis; assay: Bactericidal activity against replicating Mycobacterium tuberculosis assessed as log reduction CFU at 1 to 10 times MIC after 21 days; format: functional
[3] = Cytotoxicity against African green monkey Vero cells after 2 days by luminescent assay; format: cell-based; conditions: chlorocebus sabaeus, read-out: TC50
[4] = Selectivity index, ratio of TC50 for African green monkey Vero cells to MIC for Mycobacterium tuberculosis H37Rv ATCC 25618
[5] = test system: Mycobacterium tuberculosis; assay: Bactericidal activity against nonreplicating Mycobacterium tuberculosis assessed as log reduction CFU at MIC after 21 days; format: functional
[6] = test system: Mycobacterium tuberculosis; assay: Antitubercular activity against Mycobacterium tuberculosis H37Rv ATCC 25618 under aerobic condition after 5 days; format: functional; conditions: H37Rv ATCC 25618, 120 h
[7] = test system: Mycobacterium tuberculosis; assay: Ratio of MBC to MIC for replicating Mycobacterium tuberculosis at 1 to 10 times MIC after 21 days; format: functional
[8] = test system: Mycobacterium tuberculosis; assay: Bactericidal activity against nonreplicating Mycobacterium tuberculosis assessed as log reduction CFU at 1 to 10 times MIC after 21 days; format: functional
[9] = Fraction unbound in mouse plasma after 4.5 hrs by LC-MS/MS analysis; format: ADME, cell-free
Staphylococcus aureus = assay: Antimicrobial activity against Staphylococcus aureus after 2 days by serial proportion method; format: functional; conditions: 48 h
[10] = Metabolic stability of the compound in human liver microsomes assessed as compound turnover at 2 uM after 30 mins by LC-MS analysis; format: ADME; conditions: read-out: Drug metabolism
[11] = test system: Mycobacterium tuberculosis; assay: Antitubercular activity against Mycobacterium tuberculosis after 21 to 28 days by serial proportion method; format: functional
[12] = Thermodynamic equilibrium solubility of the compound using 10 mM DMSO at pH 2; format: physicochemical; conditions: buffer, read-out: Therm_solubility
[13] = test system: Mycolicibacterium smegmatis; assay: Antimicrobial activity against Mycobacterium smegmatis MC2 155 after 5 to 7 days by serial proportion method; format: functional; conditions: str. MC2 155
Escherichia coli = assay: Antimicrobial activity against Escherichia coli after 1 day by serial proportion method; format: functional; conditions: 24 h
[14] = test system: Mycobacterium tuberculosis; assay: Bactericidal activity against replicating Mycobacterium tuberculosis at 1 to 10 times MIC after 21 days; format: functional, organism-based
[15] = Metabolic stability of the compound in mouse liver microsomes assessed as compound turnover at 2 uM after 30 mins by LC-MS analysis; format: ADME; conditions: read-out: Drug metabolism
[16] = Thermodynamic equilibrium solubility of the compound using 10 mM DMSO at pH 6; format: physicochemical; conditions: buffer, read-out: Therm_solubility
[17] = Metabolic stability of the compound in rat liver microsomes assessed as compound turnover at 2 uM after 30 mins by LC-MS analysis; format: ADME; conditions: read-out: Drug metabolism
MDCK = assay: Passive permeability of the compound from apical to basolateral direction in MDCK cells at 10 uM in presence of P-gp inhibitor; format: ADME, cell-based, Canis lupus familiaris; conditions: dog
[18] = Thermodynamic equilibrium solubility of the compound using 10 mM DMSO at pH 7.4; format: physicochemical; conditions: buffer, read-out: Therm_solubility

SMILES	CC50 at 48 h [3] [µM]	Ratio [4]	MIC [6] [µM]	fraction unbound at 4.5 h [9]	MIC99 (Staphylococcus aureus) [µM]	metabolised at 0.5 h, 2 µM [10] [%]	MIC99 [11] [µM]	solubility thermodynamic [12] [µg/mL]	MIC99 [13] [µM]	MIC99 (Escherichia coli) [µM]	metabolised at 0.5 h, 2 µM [15] [%]	solubility thermodynamic [16] [µg/mL]	metabolised at 0.5 h, 2 µM [17] [%]	permeability (MDCK) [%]	solubility thermodynamic [18] [µg/mL]	also measured
CCc1nc2ccccc2n1CCCOc1ccccc1	> 50	>9.6	5.2 (≈ 1.46 µg/mL)	–	–	–	–	–	–	–	–	–	–	–	–	MIC [1]: 3.4 µM (≈ 0.953 µg/mL); FC [2]: 2; FC [5]: >3; Ratio [7]: >4; FC [8]: >3
CCc1nc2ccccc2n1CCCCSc1nnc(-c2ccc(Cl)cc2)o1	22	220	0.1 (≈ 0.0413 µg/mL)	0.006	> 100	99.9	2.5 (≈ 1.03 µg/mL)	830 (≈ 2010 µM)	> 100	> 100	99.8	< 1	99.9	4.4	< 1	Activity [14]: inactive; FC [5]: >3; FC [8]: >3
CCc1nc2ccccc2n1CCCCSc1ccccc1	31	22	1.4 (≈ 0.435 µg/mL)	–	> 100	–	10 (≈ 3.1 µg/mL)	–	> 100	> 100	–	–	–	–	–	–
CCc1nc2ccccc2n1CCCCNc1ccccc1	42	89	0.47 (≈ 0.138 µg/mL)	0.045	–	90.6	–	610 (≈ 2080 µM)	–	–	99.9	10 (≈ 34.1 µM)	99.9	21.5	< 1	Activity [14]: inactive
CCc1nc2ccc(C)cc2n1CCCCOc1ccccc1	18	67	0.27 (≈ 0.0833 µg/mL)	–	–	98.9	–	630 (≈ 2040 µM)	–	–	99.9	40 (≈ 130 µM)	99.9	–	10 (≈ 32.4 µM)	–
CCc1nc2cc(Cl)ccc2n1CCCCOc1ccccc1	16	53	0.3 (≈ 0.0987 µg/mL)	0.004	–	98.5	–	670 (≈ 2040 µM)	–	–	99.8	< 1	99.7	3.6	< 1	–
CCc1nc2ccccc2n1CCCCOc1ccccc1	21	19	1.1 (≈ 0.324 µg/mL)	–	> 100	–	5 (≈ 1.47 µg/mL)	–	> 100	> 100	–	–	–	–	–	–
